Test results reported in US11560400B2, “Salts of diphosphate phosphoramidate of nucleosides as anticancer compounds” (NuCana plc, priority 2017, dated 2023).
Structures can show the parent of a compound that is named as a salt. Where two headings read alike, the source gives them in different places.

Assays:
Mia-Pa-Ca-2 = experiment: CellTiterGlo cell viability assay, Mia-Pa-Ca-2; format: cell-based; details: Homo sapiens, MIA PaCa-2, Mia-Pa-Ca-2, 72 h; for EC50: absolute EC50, read-out: Ab EC50; for inhibition at 198 µM: percentage inhibition at the highest concentration tested, read-out: Top Inhibit
Description: A subset of compounds of the invention were assayed for their cytotoxic activity in an array of different solid tumours and haematological malignancies using the following assay.
In vitro viability assay were performed to assess the effects of compounds on cell viability in selected cell lines over 72 h using the CellTiterGlo (CTG, Promega-G7573) assay. The tests were performed in duplicates with treatment of compounds at 9 points, 3.16 folds titration in 96 well plates over ˜72 h. The compound starting concentrations were 198 μM. Cell viability assay using CellTiterGlo in 96-well plate were performed. Compound treatment 72 h, standard growth conditions, duplicates. Compounds were dissolved to 40 mM with thawed […]. Compounds were serially diluted at 3.16 fold in thawed DMSO, and warmed to 37° C. before being dissolved in media (2 μL+200 μL). After compounds were dissolved in media, media containing compounds were warmed to 37° C. in incubator and then compounds in media were added to cell plates (50 μL+50 μL) in duplicates. The compounds' final concentrations were from 198 μM to 19.8 nM. All compound solubilities were checked and recorded again, then the plates were transferred to CO2 tissue culture incubator immediately and incubated for 3 days. DMSO final concentration is 0.5%. The parent nucleoside in each case was tested as a comparator, as was an exemplary ProTide. The drugs of the ProTide class that were tested were as follows:
The following cell lines were tested and are referred to in the Table 1 below:
In Tables 2, 3 and 4, ‘Ab EC50’ refers to the absolute EC50 and ‘Top inhibit’ refers to the percentage inhibition achieved at the highest concentration tested.

HT29 = experiment: CellTiterGlo cell viability assay, HT29; format: cell-based; details: Homo sapiens, HT29, 72 h; for EC50: read-out: Ab EC50; for inhibition at 198 µM: percentage inhibition at the highest concentration tested, read-out: Top Inhibit
In short: (§1)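 Cell viability was measured by CellTiterGlo luminescence after ~72 h compound exposure under standard growth conditions. Compounds were tested in duplicate at 9 points, 3.16-fold dilutions, final concentrations 198 μM to 19.8 nM, 0.5% DMSO final; absolute EC50 and percentage inhibition at top concentration were reported.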

MOLT-4 = experiment: CellTiterGlo cell viability assay, MOLT-4; format: cell-based
In short: as §1

K562 = experiment: CellTiterGlo cell viability assay, K562; format: cell-based; details: Homo sapiens, K562, 72 h; for EC50: read-out: Ab EC50
In short: as §1

HL-60 = experiment: CellTiterGlo cell viability assay, HL-60; format: cell-based; details: Homo sapiens, HL-60, 72 h; for inhibition at 198 µM: read-out: Top Inh
In short: as §1

RL = experiment: CellTiterGlo cell viability assay, RL; format: cell-based; details: Homo sapiens, 72 h
In short: as §1

RPMI-8226 = experiment: CellTiterGlo cell viability assay, RPMI-8226; format: cell-based, Human; details: Homo sapiens, RPMI-8226, 72 h
In short: as §1

HepG2 = experiment: CellTiterGlo cell viability assay, HepG2; format: cell-based
In short: as §1

OVCAR 3 = experiment: CellTiterGlo cell viability assay, OVCAR 3; format: cell-based; details: Homo sapiens; for inhibition at 198 µM: percentage inhibition at the highest concentration tested, read-out: Top Inhibit; for EC50: read-out: Ab EC50
In short: as §1

MCF-7 = experiment: CellTiterGlo cell viability assay, MCF-7; format: cell-based; details: Homo sapiens, MCF-7, 72 h; for EC50: read-out: Ab EC50; for inhibition at 198 µM: percentage inhibition at the highest concentration tested, read-out: Top Inhibit
In short: as §1

CCRF-CEM = experiment: CellTiterGlo cell viability assay, CCRF-CEM; format: cell-based; details: Homo sapiens, 72 h; for EC50: read-out: Ab EC50; for inhibition at 198 µM: percentage inhibition at the highest concentration tested, read-out: Top Inh
In short: as §1

in vitro = details: human, hepatocytes, pH 7.3
[1] = Homo sapiens, MOLT-4, 72 h, percentage inhibition at the highest concentration tested, read-out: Top Inh
[2] = percentage inhibition at the highest concentration tested, read-out: Top Inh
[3] = Table 3 classes, read-out: Ab EC50

Work on C[C@H](NP(=O)(OC[C@@H]1C[C@H](O)[C@H](n2cnc3c(N)ncnc32)O1)Oc1ccccc1)C(=O)OCc1ccccc1 (stereo partly shown) [E, reference compound] yielded an EC50 (Mia-Pa-Ca-2) of 7.92 µM, an inhibition at 198 µM (Mia-Pa-Ca-2) of 98% and an EC50 (HT29; HT-29, 72 h, absolute EC50, numeric values) of 10.8 µM. For the same compound, the inhibition at 198 µM (HT29; HT-29, 72 h) was 97%, the EC50 (MOLT-4; Homo sapiens, MOLT-4, 72 h, absolute EC50, numeric values, read-out: Ab EC50) was 5.23 µM and the inhibition at 198 µM (MOLT-4; [1]) was 96%. It also gave an EC50 (K562) of 11 µM, an inhibition at 198 µM (K562; read-out: Top Inh, K562, 72 h, percentage inhibition at the highest concentration tested) of 87% and an EC50 (HL-60; read-out: Ab EC50, HL-60, 72 h, absolute EC50, numeric values) of 31.1 µM. For the same compound, the inhibition at 198 µM (HL-60) was 97%, the EC50 (RL; read-out: Ab EC50, RL, 72 h, absolute EC50, numeric values) was 18.3 µM and the inhibition at 198 µM (RL; read-out: Top Inh, RL, 72 h, percentage inhibition at the highest concentration tested) was 90.5%. It also gave an EC50 (RPMI-8226; read-out: Ab EC50, RPMI-8226, 72 h, absolute EC50, numeric values) of 19.8 µM and an inhibition at 198 µM (RPMI-8226; read-out: Top Inh, RPMI-8226, 72 h, percentage inhibition at the highest concentration tested) of 97.8%.

With Nc1nc(Cl)nc2c1ncn2[C@@H]1O[C@H](COP(=O)(O)OP(=O)(NCC(=O)OCc2ccccc2)Oc2ccccc2)C(O)[C@H]1F (stereo partly drawn) [Example 3, 2-Chloro-9-(2′-Deoxy-2′-fluoro-β-D-arabinofuranosyl)adenine-5′-O-[phenyl(benzoxy-L-glycinyl)] Diphosphate Triethylammonium Salt] the EC50 (HT29; HT-29, 72 h, Table 3 classes) was 0.2 to 2 µM, the inhibition at 198 µM (HT29; HT-29, 72 h) was 61% and the EC50 (HepG2; Homo sapiens, HepG2, 72 h, Table 3 classes, read-out: Ab EC50) was 2 to 5 µM. The inhibition at 198 µM (HepG2; Homo sapiens, HepG2, 72 h, percentage inhibition at the highest concentration tested, read-out: Top Inhibit) was 53%, the inhibition at 198 µM (OVCAR 3; OVCAR-3, 72 h) was 49% and the EC50 (OVCAR 3; OVCAR 3, 72 h, Table 3 classes) was > 10 µM. For the same compound, the EC50 (MCF-7; MCF7, 72 h, Table 3 classes) was 2 to 5 µM, the inhibition at 198 µM (MCF-7; MCF7, 72 h) was 59% and the EC50 (CCRF-CEM; Table 3 classes) was < 0.2 µM. The inhibition at 198 µM (CCRF-CEM) was 99.6%, the inhibition at 198 µM (MOLT-4; [1]) was 96% and the EC50 (MOLT-4; Homo sapiens; MOLT-4, 72 h, Table 3 classes; read-out: Ab EC50) was < 0.2 µM. For the same compound, the inhibition at 198 µM (K562; [2]) was 24%, the EC50 (K562; Table 3 classes) was > 10 µM and the EC50 (HL-60; [3]) was < 0.2 µM. For the same compound, the inhibition at 198 µM (HL-60; percentage inhibition at the highest concentration tested) was 97%, the EC50 (RL; [3]) was 0.2 to 2 µM and the inhibition at 198 µM (RL; [2]) was 63%. For the same compound, the EC50 (RPMI-8226; [3]) was 5 to 10 µM, the inhibition at 198 µM (RPMI-8226; [2]) was 91.6% and the half-life (in vitro) was 0.333 to 1.67 h.

Work on Nc1ccn([C@@H]2O[C@H](CO)[C@@H](O)C2(F)F)c(=O)n1 [Gemcitabine, reference compound] yielded an EC50 (Mia-Pa-Ca-2) of 0.03 µM, an inhibition at 198 µM (Mia-Pa-Ca-2) of 79% and an EC50 (HT29; HT-29, absolute EC50, numeric values) of 0.22 µM. For the same compound, the inhibition at 198 µM (HT29; HT-29) was 65%, the EC50 (HepG2; Homo sapiens; HepG2, 72 h, absolute EC50, numeric values; read-out: Ab EC50) was 28 µM and the inhibition at 198 µM (HepG2; Homo sapiens; HepG2, 72 h, percentage inhibition at the highest concentration tested; read-out: Top Inhibit) was 54%. The EC50 (OVCAR 3; OVCAR 3, 72 h, absolute EC50, numeric values) was > 198 µM, the inhibition at 198 µM (OVCAR 3; OVCAR 3, 72 h) was 44% and the EC50 (MCF-7; MCF7, absolute EC50, numeric values) was 0.011 µM. For the same compound, the inhibition at 198 µM (MCF-7; MCF7) was 53%, the EC50 (CCRF-CEM; absolute EC50, numeric values) was 0.02 µM and the inhibition at 198 µM (CCRF-CEM) was 101%. For the same compound, the EC50 (MOLT-4; Homo sapiens; MOLT-4, 72 h, absolute EC50, numeric values; read-out: Ab EC50) was 0.004 µM and the inhibition at 198 µM (MOLT-4; Homo sapiens; MOLT-4, 72 h, percentage inhibition at the highest concentration tested; read-out: Top Inh) was 88%.
